Reference: patent US20070049593A1 (priority 2004, published 2007)
Structures can show the parent of a compound that is named as a salt.

Molecular target: T1, HCV polymerase (Hepatitis C virus genotype 1b, UniProt P26663)
T1 construct: a region encoding NS5B (J Virol 1991 March, 65(3), 1105-13, 544 amino acids after deletion of 47 amino acids on the C-terminal); 6xHis (C); made in house; host or cells: Escherichia coli
Assay: biochemical
Parameters: species or system HCV BK strain
Outline: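 His-tagged NS5B (BK strain, 47-aa C-terminal deletion, E. coli-expressed) at 0.5 μg/ml copied 5 μg/ml run-off RNA bearing the HCV 3′ UTR with 2 μM UTP plus [3H]UTP, 50 μM ATP/GTP, in pH 7.5 Tris with 5 mM MgCl2, 25 °C, 90 min. TCA-precipitated RNA was counted and IC50 calculated.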

T1 sequence (P26663 2420-2963): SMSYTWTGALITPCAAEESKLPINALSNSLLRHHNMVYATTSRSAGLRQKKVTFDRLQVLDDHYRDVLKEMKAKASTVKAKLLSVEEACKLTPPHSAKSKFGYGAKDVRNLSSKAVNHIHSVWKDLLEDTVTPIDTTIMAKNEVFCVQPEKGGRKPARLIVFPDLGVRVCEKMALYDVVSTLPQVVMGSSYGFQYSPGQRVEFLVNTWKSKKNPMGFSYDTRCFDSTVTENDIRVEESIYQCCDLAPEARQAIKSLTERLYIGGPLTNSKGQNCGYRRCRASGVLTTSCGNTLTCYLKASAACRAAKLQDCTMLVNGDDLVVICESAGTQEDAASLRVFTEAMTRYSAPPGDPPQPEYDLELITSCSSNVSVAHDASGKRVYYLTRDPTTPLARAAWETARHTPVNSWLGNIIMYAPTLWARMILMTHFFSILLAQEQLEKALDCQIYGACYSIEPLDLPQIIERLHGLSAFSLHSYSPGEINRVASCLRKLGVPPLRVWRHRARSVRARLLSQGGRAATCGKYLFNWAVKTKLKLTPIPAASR

SMILES | IC50 [µM]
COCCO[C@@H]1CCCN(CCN2CCn3c(c(C4CCCCC4)c4ccc(C(=O)O)cc43)-c3ccc(C)cc32)C1 [Example 1-547, 13-cyclohexyl-5-{2-[(R)-3-(2-methoxyethoxy)piperidin-1-yl]ethyl}-3-methyl-6,7-dihydro-5H-benzo[5,6][1,4]diazepino[7,1-a]indole-10-carboxylic acid dihydrochloride] | < 0.1
CN(C)CCN1CCn2c(c(C3CCCCC3)c3ccc(C(=O)O)cc32)-c2ccc(OCCOc3ccccc3)cc21 [Example 1-548, 13-cyclohexyl-5-(2-dimethylaminoethyl)-3-(2-phenoxyethoxy)-6,7-dihydro-5H-benzo[5,6][1,4]diazepino[7,1-a]indole-10-carboxylic acid dihydrochloride] | < 0.1
O=C(O)c1ccc2c(C3CCCCC3)c3n(c2c1)CCN(CCN1CCCCC1)c1ncccc1-3 [Example 1-549, 12-cyclohexyl-5-[2-(piperidin-1-yl)ethyl]-6,7-dihydro-5H-4,5,7a-triazadibenzo[a,e]azulene-9-carboxylic acid dihydrochloride] | < 0.1
O=C(O)c1ccc2c(C3CCCCC3)c3n(c2c1)CCN(CCN1CCCOCC1)c1cc(F)c(F)cc1-3 [Example 1-550, 13-cyclohexyl-2,3-difluoro-5-[2-(1,4-oxazepan-4-yl)ethyl]-6,7-dihydro-5H-benzo[5,6][1,4]diazepino[7,1-a]indole-10-carboxylic acid dihydrochloride] | < 0.1
COCC1CCCCN(CCN2CCn3c(c(C4CCCCC4)c4ccc(C(=O)O)cc43)-c3ccc(C)cc32)C1 (stereo not shown) [Example 1-551, 13-cyclohexyl-5-[2-(3-methoxymethylazepan-1-yl)ethyl]-3-methyl-6,7-dihydro-5H-benzo[5,6][1,4]diazepino[7,1-a]indole-10-carboxylic acid dihydrochloride] | < 0.1
CN1CCn2c(c(C3CCCCC3)c3ccc(C(=O)O)cc32)-c2cccc(OCCN3CCCCC3)c21 [Example 1-552, 13-cyclohexyl-5-methyl-4-[2-(piperidin-1-yl)ethoxy]-6,7-dihydro-5H-benzo[5,6][1,4]diazepino[7,1-a]indole-10-carboxylic acid dihydrochloride] | < 0.1
CC(=O)N(C)CC[C@@H]1CCCN(CCN2CCn3c(c(C4CCCCC4)c4ccc(C(=O)O)cc43)-c3ccc(C)cc32)C1 [Example 1-553, 5-(2-{(S)-3-[2-(N-acetyl-N-methylamino)ethyl]piperidin-1-yl}ethyl)-13-cyclohexyl-3-methyl-6,7-dihydro-5H-benzo[5,6][1,4]diazepino[7,1-a]indole-10-carboxylic acid dihydrochloride] | < 0.1
Cc1ccc2c(c1)N(CCN1CCCCC1)CCn1c-2c(C2CCCCC2)c2ccc(C(=O)O)c(C)c21 [Example 1-554, 13-cyclohexyl-3,9-dimethyl-5-[2-(piperidin-1-yl)ethyl]-6,7-dihydro-5H-benzo[5,6][1,4]diazepino[7,1-a]indole-10-carboxylic acid dihydrochloride] | < 0.1
Cc1ccc2c(c1)N(CCN1CCC[C@@H](CCN(C)C)C1)CCn1c-2c(C2CCCCC2)c2ccc(C(=O)O)cc21 [Example 1-555, 13-cyclohexyl-5-{2-[(S)-3-(2-dimethylaminoethyl)piperidin-1-yl]ethyl}-3-methyl-6,7-dihydro-5H-benzo[5,6][1,4]diazepino[7,1-a]indole-10-carboxylic acid dihydrochloride] | < 0.1
Cc1ccc2c(c1)N(CCN1CCC[C@@H](CC(=O)O)C1)CCn1c-2c(C2CCCCC2)c2ccc(C(=O)O)cc21 [Example 1-556, 5-[2-((S)-3-carboxymethylpiperidin-1-yl)ethyl]-13-cyclohexyl-3-methyl-6,7-dihydro-5H-benzo[5,6][1,4]diazepino[7,1-a]indole-10-carboxylic acid dihydrochloride] | < 0.1
